Reference: paper PMC5640156 (Journal of the American Chemical Society, 2017)

Legend:
P450cam = target: T1, P450cam (Pseudomonas putida, UniProt P00183, R187A); assay: isothermal titration calorimetry; format: binding
T1 sequence (P00183 2-415 R187A): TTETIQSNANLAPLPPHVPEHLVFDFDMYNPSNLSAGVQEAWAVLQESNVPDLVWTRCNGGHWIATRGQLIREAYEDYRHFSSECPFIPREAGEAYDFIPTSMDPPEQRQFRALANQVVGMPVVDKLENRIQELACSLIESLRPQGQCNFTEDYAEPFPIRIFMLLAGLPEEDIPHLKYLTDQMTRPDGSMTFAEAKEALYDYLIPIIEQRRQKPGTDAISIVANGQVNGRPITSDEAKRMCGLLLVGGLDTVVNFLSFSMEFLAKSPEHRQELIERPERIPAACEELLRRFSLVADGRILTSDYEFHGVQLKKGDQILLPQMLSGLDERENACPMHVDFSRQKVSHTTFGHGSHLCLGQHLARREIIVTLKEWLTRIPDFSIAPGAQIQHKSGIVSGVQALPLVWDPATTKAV

[1] = target: T2, R186A mutant of cytochrome P450cam (Pseudomonas putida, UniProt P00183 2-415, R186A); assay: ITC
T2 sequence: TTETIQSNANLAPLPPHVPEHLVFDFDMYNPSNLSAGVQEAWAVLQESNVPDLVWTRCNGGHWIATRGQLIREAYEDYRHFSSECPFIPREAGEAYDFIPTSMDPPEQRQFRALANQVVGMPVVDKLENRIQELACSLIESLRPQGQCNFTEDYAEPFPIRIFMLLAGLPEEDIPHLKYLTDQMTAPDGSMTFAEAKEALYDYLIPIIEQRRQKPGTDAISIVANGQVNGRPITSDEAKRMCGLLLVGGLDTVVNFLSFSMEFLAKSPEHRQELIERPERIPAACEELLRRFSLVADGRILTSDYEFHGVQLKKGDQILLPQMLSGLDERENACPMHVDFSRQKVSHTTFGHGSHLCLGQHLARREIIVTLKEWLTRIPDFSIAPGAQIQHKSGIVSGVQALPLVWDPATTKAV

For `CC1(C)[C@@H]2CC[C@@]1(C)C(=O)C2` [D-camphor], which Kd (P450cam) is on record?
The Kd was 32.2 ± 4 µM.

B1: putidaredoxin (natural protein, Pseudomonas putida)
chain: MSKVVYVSHDGTRRELDVADGVSLMQAAVSNGIYDIVGDCGGSASCATCHVYVNEAFTDKVPAANEREIGMLECVTAELKPNSRLCCQIIMTPELDGIVVDVPDRQW
For B1, which Kd [1] is on record?
The Kd was 22.1 µM.
